Consider 52 sequences from the supplement of paper PMC11208160.

The data set is described as follows: recombinant UMI read abundance after kanamycin selection (control-corrected) (log10(CPM+1)); higher = more efficient recombination; extreme values may be limits of the assay; sequences stand for … in AGTGCAGAGAAAATCGGCCAGTTTTCTCTGCCTGCAGTCCGCATGCCGTGGGACCCCTTGGGTTCTAACCTGTTGCCTAGATTTATGCAGCGGACTGCCTTTCTCCCAAAGTGATAAACCGG…AGGTTGGTTTCACT; site = the 11-nt donor. The method in brief:
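For the IS621 bridge recombinase, a pooled Escherichia coli screen tested donor and donor-binding-loop pairs. Cells received the pair library together with a target plasmid encoding a fixed target and T7-inducible recombinase, then went onto IPTG (0.07 mM) plus kanamycin or unselected plates in duplicate. After PCR across the donor–target junction and sequencing, recombinant UMI counts were normalized to CPM, averaged, and scaled by control-derived factors. Each value is given as log10(CPM+1).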
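Also: IS621 bridge recombinase in Escherichia coli cells against a fixed T5 target plasmid.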

As to “CAGTCGACATGGACCGGTTTTCCCGGTAATCCGTATTTGGG (site CAGTCGACTCT)”, the “recombinant UMI read abundance (log10)” value came out at 0.314.

As for “CAGTCGACATGGACCGGTTTTCCCGGTAATCCGTATTTGGG (site CAGTCGACTGC)”, the “recombinant UMI read abundance (log10)” value amounted to 0.

For the sequence “CAGTCGACATGGACCGGTTTTCCCGGTAATCCGTATTTGGG (site CAGTCGACTTC)”, the “recombinant UMI read abundance (log10)” value worked out at 0.00419.

In the case of “CAGTCGACATGGACCGGTTTTCCCGGTAATCCGTATTTGGG (site CAGTCGCCTCC)”, the “recombinant UMI read abundance (log10)” value came out at 0.0239.

For “CAGTCGACATGGACCGGTTTTCCCGGTAATCCGTATTTGGG (site CAGTCGGCTCC)”, the “recombinant UMI read abundance (log10)” value worked out at 0.0315.

As to “CAGTCGACATGGACCGGTTTTCCCGGTAATCCGTATTTGGG (site CAGTCGTCTCC)”, the “recombinant UMI read abundance (log10)” value was determined as 0.151.

Regarding “CAGTCGACATGGACCGGTTTTCCCGGTAATCCGTATTTGGG (site CAGTCTACTCC)”, the “recombinant UMI read abundance (log10)” value came to 0.0277.

Take “CAGTCGACATGGACCGGTTTTCCCGGTAATCCGTATTTGGG (site CAGTGGACTCC)”: the “recombinant UMI read abundance (log10)” value turned out to be 0.0181.

“CAGTCGACATGGACCGGTTTTCCCGGTAATCCGTATTTGGG (site CAGTTGACTCC)”: the “recombinant UMI read abundance (log10)” value was 0.0173.

As to “CAGTCGACATGGACCGGTTTTCCCGGTAATCCGTATTTGGG (site CATTCGACTCC)”, the “recombinant UMI read abundance (log10)” value is 0.0119.

Regarding “CAGTCGACATGGACCGGTTTTCCCGGTAATCCGTATTTGGG (site CCGTCGACTCC)”, the “recombinant UMI read abundance (log10)” value came out at 0.00307.

Turning to “CAGTCGACATGGACCGGTTTTCCCGGTAATCCGTATTTGGG (site CGGTCGACTCC)”, the “recombinant UMI read abundance (log10)” value came out at 0.0115.

In the case of “CAGTCGACATGGACCGGTTTTCCCGGTAATCCGTATTTGGG (site CTGTCGACTCC)”, the “recombinant UMI read abundance (log10)” value was determined as 0.0261.

In the case of “CAGTCGACATGGACCGGTTTTCCCGGTAATCCGTATTTGGG (site GAGTCGACTCC)”, the “recombinant UMI read abundance (log10)” value was 0.0417.

Regarding “CAGTCGACATGGACCGGTTTTCCCGGTAATCCGTATTTGGG (site TAGTCGACTCC)”, the “recombinant UMI read abundance (log10)” value stood at 0.01.

For the sequence “CAGTCTACATGGACCGGTTTTCCCGGTAATCCGTATTTGGG (site CAGTCAACTCC)”, the “recombinant UMI read abundance (log10)” value was found to be 0.0237.

Regarding “CAGTCTACATGGACCGGTTTTCCCGGTAATCCGTATTTGGG (site CAGTCCACTCC)”, the “recombinant UMI read abundance (log10)” value turned out to be 0.0106.

“CAGTCTACATGGACCGGTTTTCCCGGTAATCCGTATTTGGG (site CAGTCGACTCC)”: the “recombinant UMI read abundance (log10)” value worked out at 0.00653.

With “CAGTCTACATGGACCGGTTTTCCCGGTAATCCGTATTTGGG (site CAGTCTACTCC)”, the “recombinant UMI read abundance (log10)” value came to 0.0109.

As to “CAGTTATCATGGACCGGTTTTCCCGGTAATCCGTATTTGTG (site CAGTTATCTCA)”, the “recombinant UMI read abundance (log10)” value was 3.18.

For the sequence “CAGTTGGCATGGACCGGTTTTCCCGGTAATCCGTATTTGTG (site CAGTTGGCTCA)”, the “recombinant UMI read abundance (log10)” value is 1.47.

“CATAACGCATGGACCGGTTTTCCCGGTAATCCGTATTTGGG (site CATAACGCTCC)”: the “recombinant UMI read abundance (log10)” value is 0.802.

As to “CATAACGCATGGACCGGTTTTCCCGGTAATCCGTATTTGTG (site TGAGGGCCTGC)”, the “recombinant UMI read abundance (log10)” value stood at 0.

Consider “CATAGCCCATGGACCGGTTTTCCCGGTAATCCGTATTTGCC (site CATAGCCCTGG)”, for which the “recombinant UMI read abundance (log10)” value is 0.

Regarding “CATAGGGCATGGACCGGTTTTCCCGGTAATCCGTATTTGTC (site CATAGGGCTGA)”, the “recombinant UMI read abundance (log10)” value turned out to be 2.5.

For the sequence “CATATCCCATGGACCGGTTTTCCCGGTAATCCGTATTTGCG (site CATATCCCTCG)”, the “recombinant UMI read abundance (log10)” value turned out to be 0.847.

Regarding “CATATCTCATGGACCGGTTTTCCCGGTAATCCGTATTTGAC (site CATATCTCTGT)”, the “recombinant UMI read abundance (log10)” value was found to be 2.52.

For the sequence “CATATTCCATGGACCGGTTTTCCCGGTAATCCGTATTTGCT (site CATATTCCTAG)”, the “recombinant UMI read abundance (log10)” value was 0.

In the case of “CATCAGTCATGGACCGGTTTTCCCGGTAATCCGTATTTGAT (site CATCAGTCTAT)”, the “recombinant UMI read abundance (log10)” value stood at 2.04.

Take “CATCATGCATGGACCGGTTTTCCCGGTAATCCGTATTTGTT (site CATCATGCTAA)”: the “recombinant UMI read abundance (log10)” value was determined as 1.58.

On to “CATCCGGCATGGACCGGTTTTCCCGGTAATCCGTATTTGTC (site CATCCGGCTGA)”, for which the “recombinant UMI read abundance (log10)” value was 0.293.

Regarding “CATCGTTCATGGACCGGTTTTCCCGGTAATCCGTATTTGCA (site CATCGTTCTTG)”, the “recombinant UMI read abundance (log10)” value was determined as 2.25.

In the case of “CATCTCGCATGGACCGGTTTTCCCGGTAATCCGTATTTGCA (site CATCTCGCTTG)”, the “recombinant UMI read abundance (log10)” value came to 0.985.

Turning to “CATCTGCCATGGACCGGTTTTCCCGGTAATCCGTATTTGCC (site CATCTGCCTGG)”, the “recombinant UMI read abundance (log10)” value was 0.

As to “CATGCAGCATGGACCGGTTTTCCCGGTAATCCGTATTTGAG (site CATGCAGCTCT)”, the “recombinant UMI read abundance (log10)” value was 1.51.

“CATGCCCCATGGACCGGTTTTCCCGGTAATCCGTATTTGGG (site CATGCCCCTCC)”: the “recombinant UMI read abundance (log10)” value worked out at 0.00831.

With “CATGGAACATGGACCGGTTTTCCCGGTAATCCGTATTTGTT (site CATGGAACTAA)”, the “recombinant UMI read abundance (log10)” value came to 1.85.

Consider “CATGGAACATGGACCGGTTTTCCCGGTAATCCGTATTTGTT (site CCTGGAACTAA)”, for which the “recombinant UMI read abundance (log10)” value turned out to be 0.00373.

Consider “CATGGAACATGGACCGGTTTTCCCGGTAATCCGTATTTGTT (site CGTGGAACTAA)”, for which the “recombinant UMI read abundance (log10)” value was determined as 0.0146.

As to “CATGGAACATGGACCGGTTTTCCCGGTAATCCGTATTTGTT (site CTTGGAACTAA)”, the “recombinant UMI read abundance (log10)” value came out at 0.00575.

For the sequence “CATGGACCATGGACCGGTTTTCCCGGTAATCCGTATTTGGG (site CATGGACCTCC)”, the “recombinant UMI read abundance (log10)” value was determined as 0.0171.

For “CATGTAACATGGACCGGTTTTCCCGGTAATCCGTATTTGGG (site CATGTAACTCC)”, the “recombinant UMI read abundance (log10)” value was 0.209.

On to “CATTAAACATGGACCGGTTTTCCCGGTAATCCGTATTTGCC (site CATTAAACTGG)”, for which the “recombinant UMI read abundance (log10)” value came to 1.51.

On to “CATTACCCATGGACCGGTTTTCCCGGTAATCCGTATTTGCC (site CATTACCCTGG)”, for which the “recombinant UMI read abundance (log10)” value was determined as 0.

For the sequence “CATTAGACATGGACCGGTTTTCCCGGTAATCCGTATTTGAG (site CATTAGACTCT)”, the “recombinant UMI read abundance (log10)” value is 1.89.

As for “CATTAGACATGGACCGGTTTTCCCGGTAATCCGTATTTGAG (site CCTTAGACTCT)”, the “recombinant UMI read abundance (log10)” value amounted to 0.769.

On to “CATTAGACATGGACCGGTTTTCCCGGTAATCCGTATTTGAG (site CGTTAGACTCT)”, for which the “recombinant UMI read abundance (log10)” value is 0.492.

For “CATTAGACATGGACCGGTTTTCCCGGTAATCCGTATTTGAG (site CTTTAGACTCT)”, the “recombinant UMI read abundance (log10)” value is 0.0129.

In the case of “CATTAGGCATGGACCGGTTTTCCCGGTAATCCGTATTTGCT (site CATTAGGCTAG)”, the “recombinant UMI read abundance (log10)” value came to 1.54.

As for “CATTATGCATGGACCGGTTTTCCCGGTAATCCGTATTTGGA (site AATTATGCTTC)”, the “recombinant UMI read abundance (log10)” value stood at 0.0205.

In the case of “CATTATGCATGGACCGGTTTTCCCGGTAATCCGTATTTGGA (site CATTATGCTTC)”, the “recombinant UMI read abundance (log10)” value was 1.07.

Turning to “CATTATGCATGGACCGGTTTTCCCGGTAATCCGTATTTGGA (site GATTATGCTTC)”, the “recombinant UMI read abundance (log10)” value turned out to be 0.00887.
